A word on the IC50: it is the concentration that gives 50% inhibition.

Structures are written as SMILES.

The source of these data is patent US9914730B2, “Azaquinazoline inhibitors of Atypical protein Kinase C” (Ignyta, Inc., priority 2012, dated 2018).

This assay has as its target T1, full-length human PKCι (Homo sapiens, UniProt P41743).
T1 construct: Recombinant, full-length human PKCι expressed in Sf21 insect cells is also commercially available; purchased; host or cells: Sf21 insect cells
T1 sequence (P41743 1-596): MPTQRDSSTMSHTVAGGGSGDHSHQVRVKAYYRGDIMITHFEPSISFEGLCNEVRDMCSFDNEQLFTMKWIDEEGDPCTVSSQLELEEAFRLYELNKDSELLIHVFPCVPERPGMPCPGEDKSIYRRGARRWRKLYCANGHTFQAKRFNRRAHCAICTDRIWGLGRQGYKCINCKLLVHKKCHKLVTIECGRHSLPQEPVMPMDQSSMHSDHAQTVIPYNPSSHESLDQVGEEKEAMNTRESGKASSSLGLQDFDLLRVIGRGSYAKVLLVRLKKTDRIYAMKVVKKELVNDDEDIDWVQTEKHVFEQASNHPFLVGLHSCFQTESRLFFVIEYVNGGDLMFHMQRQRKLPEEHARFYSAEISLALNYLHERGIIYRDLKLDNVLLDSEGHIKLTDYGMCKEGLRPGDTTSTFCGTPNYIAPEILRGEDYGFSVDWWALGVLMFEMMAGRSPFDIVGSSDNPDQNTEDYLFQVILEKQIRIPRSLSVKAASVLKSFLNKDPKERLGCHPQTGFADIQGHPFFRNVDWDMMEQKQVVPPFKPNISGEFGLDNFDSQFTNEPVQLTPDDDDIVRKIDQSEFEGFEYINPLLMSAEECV
Put plainly: PKCι IC50 IMAP assay, full-length PKCι at 150 μM ATP. The class given is biochemical. The following applies: read-out: IC50 in IMAP assay against full length PKCi at 150 μM ATP. In outline:
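IC50 from IMAP FP (ex 485/em 530 nm) after 60 min room-temperature reaction in pH 7.5 tris buffer with 9 mM MgCl2 and 0.9 mM DTT. Enzyme: full-length Sf21-expressed PKCι (~15 pM); ATP 150 μM, five times KM^APP; FAM-labelled peptide 100 nM; DMSO 4%.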

As to `c1cc(-c2nc(N3CCNCC3)c3c(C4CCC4)cncc3n2)c2cc(C3CCCO3)[nH]c2n1` (stereo not shown) [Example 2185, 5-Cyclobutyl-4-piperazin-1-yl-2-[2-(tetrahydro-furan-2-yl)-1H-pyrrolo[2,3-b]pyridin-4-yl]-pyrido[3,4-d]pyrimidine], the IC50 is less than 100 nM.
As for `Fc1cc(F)c(F)c(Nc2cc(-c3nc(NC4CCNCC4)c4c(C5CC5)cncc4n3)ccn2)n1` [Example 2062, {5-Cyclopropyl-2-[2-(3,4,6-trifluoro-pyridin-2-ylamino)-pyridin-4-yl]-pyrido[3,4-d]pyrimidin-4-yl}-piperidin-4-yl-amine], the figure is less than 100 nM.
The figure for `COc1cncc2nc(-c3ccnc(NC(=O)C(C)(C)C)c3)nc(N3CCNCC3)c12` [Example 217, N-[4-(5-Methoxy-4-piperazin-1-yl-pyrido[3,4-d]pyrimidin-2-yl)-pyridin-2-yl]-2,2-dimethyl-propionamide] is 100 to 1000 nM.
The figure for `CN1CCN(c2cccc(Nc3cc(-c4nc(N5CCN(C(N)=O)CC5)c5c(C6CC6)cncc5n4)ccn3)c2)CC1` [Example 687, 4-(5-Cyclopropyl-2-{2-[3-(4-methyl-piperazin-1-yl)-phenylamino]-pyridin-4-yl}-pyrido[3,4-d]pyrimidin-4-yl)-piperazine-1-carboxylic acid amide] is 100 to 1000 nM; for `N[C@H](CNc1nc(-c2ccncc2)nc2c(-c3ccccc3)nccc12)Cc1ccccc1` [Example 90, N-[(2S)-2-amino-3-phenylpropyl]-8-phenyl-2-(pyridin-4-yl)pyrido[3,4-d]-pyrimidin-4-amine] it is 100 to 1000 nM.
As for `FC1(F)CCC(Nc2cc(-c3nc(N4CCNCC4)c4c(C5CC5)cncc4n3)ccn2)C1` (stereo not shown) [Example 621, [4-(5-Cyclopropyl-4-piperazin-1-yl-pyrido[3,4-d]pyrimidin-2-yl)-pyridin-2-yl]-(3,3-difluoro-cyclopentyl)-amine], the IC50 is less than 100 nM.
Take `Fc1cc(F)c(Nc2cc(-c3nc(N4CCNCC4)c4c(C5CC5)cnc(Cl)c4n3)ccn2)nc1F` [Example 2178, [4-(8-Chloro-5-cyclopropyl-4-piperazin-1-yl-pyrido[3,4-d]pyrimidin-2-yl)-pyridin-2-yl]-(3,5,6,-trifluoro-pyridin-2-yl)-amine]: the IC50 was less than 100 nM.
As for `CCn1cc(Cl)c(Nc2cc(-c3nc(N4CCNCC4)c4c(C5CC5)cncc4n3)ccn2)n1` [Example 2015, (4-Chloro-1-ethyl-1H-pyrazol-3-yl)-[4-(5-cyclopropyl-4-piperazin-1-yl-pyrido[3,4-d]pyrimidin-2-yl)-pyridin-2-yl]-amine], the figure is less than 100 nM; as for `CN(c1nc(-c2ccnc(Nc3c(F)cccc3F)c2)nc2cncc(C3CC3)c12)[C@@H]1CCNC1` [Example 2057, {5-Cyclopropyl-2-[2-(2,6-difluoro-phenylamino)-pyridin-4-yl]-pyrido[3,4-d]pyrimidin-4-yl}-methyl-(R)-pyrrolidin-3-yl-amine], less than 100 nM; as for `c1ccc(Nc2cc(-c3nc(N4CC5CNCC5C4)c4c(C5CC5)cncc4n3)ccn2)cc1` (stereo not shown) [Example 2131, {4-[5-Cyclopropyl-4-(hexahydro-pyrrolo[3,4-c]pyrrol-2-yl)-pyrido[3,4-d]pyrimidin-2-yl]-pyridin-2-yl}-phenyl-amine], less than 100 nM.
For the molecule `COc1cncc2nc(-c3ccnc(Nc4cccnc4)c3)nc(N3CCNCC3)c12` [Example 378, [4-(5-Methoxy-4-piperazin-1-yl-pyrido[3,4-d]pyrimidin-2-yl)-pyridin-2-yl]-pyridin-3-yl-amine], the IC50 was less than 100 nM.
The figure for `FC(F)(F)c1ccc(-n2cc(Nc3cc(-c4nc(N5CCNCC5)c5c(C6CC6)cncc5n4)ccn3)c(Cl)n2)nc1` [Example 2154, [3-Chloro-1-(5-trifluoromethyl-pyridin-2-yl)-1H-pyrazol-4-yl]-[4-(5-cyclopropyl-4-piperazin-1-yl-pyrido[3,4-d]pyrimidin-2-yl)-pyridin-2-yl]-amine] is less than 100 nM; for `CC(C)(C)C(=O)N1CCC(Nc2cc(-c3nc(N4CCNCC4)c4c(C5CC5)cncc4n3)ccn2)CC1` [Example 813, 1-{4-[4-(5-Cyclopropyl-4-piperazin-1-yl-pyrido[3,4-d]pyrimidin-2-yl)-pyridin-2-ylamino]-piperidin-1-yl}-2,2-dimethyl-propan-1-one] it is less than 100 nM.
As for `Fc1cnccc1-c1nc(N2CCNC(C(F)(F)F)C2)c2ccncc2n1` (stereo not shown) [Example 66, 1-[2-(3-fluoropyridin-4-yl)pyrido[3,4-d]-pyrimidin-4-yl]-3-(trifluoromethyl)-piperazine], the figure is 10000 to 40000 nM; as for `c1cc2c(N[C@@H]3CCNC3)nc(-c3ccnc4[nH]ccc34)nc2cn1` [Example 1208, (R)-Pyrrolidin-3-yl-[2-(1H-pyrrolo[2,3-b]pyridin-4-yl)-pyrido[3,4-d]pyrimidin-4-yl]-amine], 100 to 1000 nM.
As for `FC(F)(F)c1cc2c(-c3nc(N4CCNC(C(F)(F)F)C4)c4c(C5CC5)cncc4n3)ccnc2[nH]1` (stereo not shown) [Example 1236, 5-Cyclopropyl-4-(3-trifluoromethyl-piperazin-1-yl)-2-(2-trifluoromethyl-1H-pyrrolo[2,3-b]pyridin-4-yl)-pyrido[3,4-d]pyrimidine], the figure is 1000 to 10000 nM; as for `COc1cncc2nc(-c3ccnc(Nc4nc(C)c(C)o4)c3)nc(N3CCNCC3)c12` [Example 203, (4,5-Dimethyl-oxazol-2-yl)-[4-(5-methoxy-4-piperazin-1-yl-pyrido[3,4-d]pyrimidin-2-yl)-pyridin-2-yl]-amine], less than 100 nM.
As to `c1cc(-c2nc(N3CCNCC3)c3c(C4CCC4)cncc3n2)c2cc(C3CCC3)[nH]c2n1` [Example 2147, 5-Cyclobutyl-2-(2-cyclobutyl-1H-pyrrolo[2,3-b]pyridin-4-yl)-4-piperazin-1-yl-pyrido[3,4-d]pyrimidine], the IC50 is less than 100 nM.
The figure for `CC(C)c1ccc(Nc2cc(-c3nc(N4CCNCC4)c4c(C5CC5)cncc4n3)ccn2)c(F)c1` [Example 714, [4-(5-Cyclopropyl-4-piperazin-1-yl-pyrido[3,4-d]pyrimidin-2-yl)-pyridin-2-yl]-(2-fluoro-4-isopropyl-phenyl)-amine] is less than 100 nM; for `Fc1cccc(F)c1Nc1cc(-c2nc(NCC3CCN(C4CCC4)CC3)c3c(C4CC4)cncc3n2)ccn1` [Example 2103, (1-Cyclobutyl-piperidin-4-ylmethyl)-{5-cyclopropyl-2-[2-(2,6-difluoro-phenylamino)-pyridin-4-yl]-pyrido[3,4-d]pyrimidin-4-yl}-amine] it is 100 to 1000 nM.
`Fc1cccc(F)c1Nc1cc(-c2nc(N[C@H]3CCNC3)c3c(C4CC4)cncc3n2)ccn1` [Example 2034, {5-Cyclopropyl-2-[2-(2,6-difluoro-phenylamino)-pyridin-4-yl]-pyrido[3,4-d]pyrimidin-4-yl}-(S)-pyrrolidin-3-yl-amine]: the IC50 is less than 100 nM.
As for `c1ccc(C[C@H]2CNCCN2c2nc(-c3ccncc3)nc3cnccc23)cc1` [Example 38, (2S)-2-benzyl-1-[2-(pyridin-4-yl)-pyrido[3,4-d]-pyrimidin-4-yl]-piperazine], the figure is 100 to 1000 nM.
As for `COc1cncc2nc(-c3ccnc(Nc4ccc(C#N)cn4)c3)nc(N[C@@H]3CCNC3)c12` [Example 344, 6-{4-[5-Methoxy-4-((R)-pyrrolidin-3-ylamino)-pyrido[3,4-d]pyrimidin-2-yl]-pyridin-2-ylamino}-nicotinonitrile], the figure is less than 100 nM; as for `COc1cncc2nc(N3CCOCC3)nc(N3CCN[C@@H](COc4ccccc4)C3)c12` [Example 1006, 5-Methoxy-2-morpholin-4-yl-4-((R)-3-phenoxymethyl-piperazin-1-yl)-pyrido[3,4-d]pyrimidine], 100 to 1000 nM; as for `OC[C@@H](Nc1cc(-c2nc(N3CCNCC3)c3c(C4CC4)cncc3n2)ccn1)c1ccccc1` [Example 2164, (S)-2-[4-(5-Cyclopropyl-4-piperazin-1-yl-pyrido[3,4-d]pyrimidin-2-yl)-pyridin-2-ylamino]-2-phenyl-ethanol], less than 100 nM.
The figure for `Fc1cnc(Nc2cc(-c3nc(N4CCNCC4)c4c(C5CCC5)cncc4n3)ccn2)c(F)c1` [Example 783, [4-(5-Cyclobutyl-4-piperazin-1-yl-pyrido[3,4-d]pyrimidin-2-yl)-pyridin-2-yl]-(3,5-difluoro-pyridin-2-yl)-amine] is less than 100 nM.
As for `O[C@@H]1CN(c2nc(-c3ccnc(Nc4ccccc4)c3)nc3cncc(C4CC4)c23)CC[C@@H]1O` (racemic) [Example 675, (+/−)-(cis)-1-[5-Cyclopropyl-2-(2-phenylamino-pyridin-4-yl)-pyrido[3,4-d]pyrimidin-4-yl]-piperidine-3,4-diol], the IC50 lay in the range of 100 to 1000 nM.
The figure for `N[C@H](CNc1nc(-c2ccncc2)nc2c(-c3ccc(O)cc3)nccc12)Cc1ccccc1` [Example 91, 4-(4-{[(2S)-2-amino-3-phenylpropyl]-amino}-2-(pyridin-4-yl)pyrido[3,4-d]-pyrimidin-8-yl)phenol] is 100 to 1000 nM.
